Results from patent publication US4751215A, “Process for increasing the sexual activity of birds and useful domestic mammals and for preparing spermatozoa suitable to their propagation” (INNOFINANCE Altalanos Innovacios Penzintezet, priority 1985, dated 1988).

What was measured:
Type in all cases: in vivo
male turkeys [1] = assay: Permanent increase in sperm production of male turkeys bred on a large scale (Example 1, FIG. 4); details: 0.5 μg/kg i.m. every 2 days, 3 times
Protocol: (§1) 0.5 μg/kg of D-Phe^6 -GnRH analogue was intramuscularly administered to sexually mature male turkeys every 2 days, altogether 3 times. On the 20th day following treatment, the sperm production reached an increase of 44% and remained at a higher level, as compared to the control, for about 1 month (FIG. 4).
(§2) One month and half after the first treatment, the same animals were similarly treated with 0.5 μg/kg of (Asp-α-diethylamide)^6,desGly^10 -GnRH ethylamide analogue every 2 days, altogether 3 times.

male turkey = assay: Effect of interval between three intramuscular injections on sperm production of male turkey (Table 2); details: three i.m. injections, 1 μg/kg
Text: In Table 2, the influence on the sperm production of the interval kept between the consecutive treatments is shown on male turkeys.

male turkeys [2] = assay: Effect of gonadoliberin analogues on the sperm production of male turkeys (Table 5)
Text: In a further experiment, the sperm production of male turkeys was raised by administering the following four compounds: […]

testosterone level = assay: Testosterone level of treated male turkeys (Table 3); details: Treated (n = 15)
Protocol: as §1, §2
The rise of the LH level of the blood was followed by an increase in the testosterone level (Table 3).

[3] = system: blood plasma testosterone level; assay: Effect of various doses on blood plasma testosterone level of domestic cock (Table 1)
Text: In Table 1, the relation of the doses of the compounds of general formula (I) to the blood plasma testosterone level of the treated animals is illustrated in case of domestic cocks.

bull = assay: Enhancement of the sexual activity of a bull; details: 300 μg each, 3 times
Protocol: A 2-year old bull of 1010 kg weight, of breeding condition and correspondingly having a good muscular system, good leg construction and a definitely male sexual character was set to breeding in 1985. On October 16 and 23 as well as on Nov. 1, 1985 test coverings were carried out on a rutting female cattle and on a phantom bull. […] Diagnosis stated by the veterinarian specialist: importentia coeundi. The bull was treated on November 29 as well as on Dec. 2 and 4, 1986 altogether 3 times with 300 μg each of D-[…] -GnRH analogue. On Dec. […] 7, 1986. On Jan. 21, 1986 the bull sprung onto a cow being after rutting. The sexual potency of the animal was unobjectionable even after 5 weeks following the treatment.

Question: For `CC(C)C[C@H](NC(=O)[C@@H](Cc1ccccc1)NC(=O)[C@H](Cc1ccc(O)cc1)NC(=O)[C@H](CO)NC(=O)[C@H](Cc1c[nH]c2ccccc12)NC(=O)[C@H](Cc1c[nH]cn1)NC(=O)[C@@H]1CCC(=O)N1)C(=O)N[C@@H](CCCNC(=N)N)C(=O)N1CCC[C@H]1C(=O)NCC(N)=O` [Compound "A", D-Phe^6 -GnRH], which “time sperm production remained at a higher level as compared to the control” value (male turkeys [1]) is on record?
Answer: Its value is “about 1 month”.

Question: What about the “increase of sperm production” value (male turkeys [1]; on the 20th day following treatment) of the same molecule?
Answer: The value was 44%.

Question: And the Sperm volume (male turkey; interval between treatments 24 hour, on day 0)?
Answer: Its Sperm volume is 0.18 (0.05) ml.

Question: And the Sperm volume (male turkey; interval between treatments 24 hour, on the 20th day)?
Answer: The Sperm volume was 0.21 (0.10) ml.

Question: What about the Sperm volume (male turkey; interval between treatments 48 hour, on day 0) of the same molecule?
Answer: Its Sperm volume is 0.19 (0.07) ml.

Question: What about the Sperm volume (male turkey; interval between treatments 48 hour, on the 20th day) of the same molecule?
Answer: Its Sperm volume is 0.35 (0.12) ml.

Question: And the Sperm volume (male turkey; interval between treatments 72 hour, on day 0)?
Answer: The Sperm volume was 0.16 (0.08) ml.

Question: What about the Sperm volume (male turkey; interval between treatments 72 hour, on the 20th day) of the same molecule?
Answer: Its Sperm volume is 0.25 (0.11) ml.

Question: What about the Sperm volume (male turkey; interval between treatments 144 hour, on day 0) of the same molecule?
Answer: Its Sperm volume is 0.21 (0.07) ml.

Question: What about the Sperm volume (male turkey; interval between treatments 144 hour, on the 20th day) of the same molecule?
Answer: The Sperm volume was 0.24 (0.09) ml.

Question: What about the Sperm production (male turkeys [2]; after 30 days) of the same molecule?
Answer: Its Sperm production is 0.34 ml/animal.

Question: And the Sperm production (male turkeys [2]; after 60 days)?
Answer: Its Sperm production is 0.39 ml/animal.

Question: What about the Sperm production (male turkeys [2]; at the beginning of the experiment) of the same molecule?
Answer: Its Sperm production is 0.27 ml/animal.

Question: And the Testosterone (testosterone level; sampling May 2)?
Answer: The Testosterone was 2.43 ± 1.22 ng/mL.

Question: And the Testosterone (testosterone level; sampling May 23)?
Answer: The Testosterone was 4.06 ± 1.62 ng/mL.

Question: And the “Testosterone level of the blood plasma” value ([3]; dose 0.01 μg/kg, after 0 minutes)?
Answer: Its value is 1.7 (0.7) ng/ml.

Question: And the “Testosterone level of the blood plasma” value ([3]; dose 0.01 μg/kg, after 30 minutes)?
Answer: Its value is 1.6 (1.3) ng/ml.

Question: And the “Testosterone level of the blood plasma” value ([3]; dose 0.01 μg/kg, after 60 minutes)?
Answer: The value was 1.5 (1.0) ng/ml.

Question: And the “Testosterone level of the blood plasma” value ([3]; dose 0.01 μg/kg, after 120 minutes)?
Answer: Its value is 1.4 (0.6) ng/ml.

Question: And the “Testosterone level of the blood plasma” value ([3]; dose 0.05 μg/kg, after 0 minutes)?
Answer: Its value is 1.4 (0.7) ng/ml.

Question: And the “Testosterone level of the blood plasma” value ([3]; dose 0.05 μg/kg, after 30 minutes)?
Answer: The value was 1.7 (1.2) ng/ml.

Question: What about the “Testosterone level of the blood plasma” value ([3]; dose 0.05 μg/kg, after 60 minutes) of the same molecule?
Answer: Its value is 1.5 (1.2) ng/ml.

Question: What about the “Testosterone level of the blood plasma” value ([3]; dose 0.05 μg/kg, after 120 minutes) of the same molecule?
Answer: Its value is 1.9 (0.8) ng/ml.

Question: And the “Testosterone level of the blood plasma” value ([3]; dose 0.1 μg/kg, after 0 minutes)?
Answer: Its value is 1.0 (0.2) ng/ml.

Question: And the “Testosterone level of the blood plasma” value ([3]; dose 0.1 μg/kg, after 30 minutes)?
Answer: The value was 3.4 (1.9) ng/ml.

Question: And the “Testosterone level of the blood plasma” value ([3]; dose 0.1 μg/kg, after 60 minutes)?
Answer: Its value is 2.7 (1.1) ng/ml.

Question: What about the “Testosterone level of the blood plasma” value ([3]; dose 0.1 μg/kg, after 120 minutes) of the same molecule?
Answer: Its value is 2.0 (0.8) ng/ml.

Question: And the “Testosterone level of the blood plasma” value ([3]; dose 0.3 μg/kg, after 0 minutes)?
Answer: The value was 2.1 (0.7) ng/ml.

Question: What about the “Testosterone level of the blood plasma” value ([3]; dose 0.3 μg/kg, after 30 minutes) of the same molecule?
Answer: The value was 3.9 (0.6) ng/ml.

Question: What about the “Testosterone level of the blood plasma” value ([3]; dose 0.3 μg/kg, after 60 minutes) of the same molecule?
Answer: Its value is 4.2 (1.2) ng/ml.

Question: What about the “Testosterone level of the blood plasma” value ([3]; dose 0.3 μg/kg, after 120 minutes) of the same molecule?
Answer: The value was 2.6 (0.5) ng/ml.

Question: What about the “Testosterone level of the blood plasma” value ([3]; dose 0.5 μg/kg, after 0 minutes) of the same molecule?
Answer: Its value is 2.5 (1.0) ng/ml.

Question: And the “Testosterone level of the blood plasma” value ([3]; dose 0.5 μg/kg, after 30 minutes)?
Answer: Its value is 6.5 (0.5) ng/ml.

Question: What about the “Testosterone level of the blood plasma” value ([3]; dose 0.5 μg/kg, after 60 minutes) of the same molecule?
Answer: The value was 5.3 (1.2) ng/ml.

Question: What about the “Testosterone level of the blood plasma” value ([3]; dose 0.5 μg/kg, after 120 minutes) of the same molecule?
Answer: Its value is 3.9 (1.5) ng/ml.

Question: And the “Testosterone level of the blood plasma” value ([3]; dose 1.0 μg/kg, after 0 minutes)?
Answer: Its value is 1.5 (0.8) ng/ml.

Question: What about the “Testosterone level of the blood plasma” value ([3]; dose 1.0 μg/kg, after 30 minutes) of the same molecule?
Answer: The value was 7.2 (3.5) ng/ml.

Question: What about the “Testosterone level of the blood plasma” value ([3]; dose 1.0 μg/kg, after 60 minutes) of the same molecule?
Answer: The value was 7.1 (3.6) ng/ml.

Question: What about the “Testosterone level of the blood plasma” value ([3]; dose 1.0 μg/kg, after 120 minutes) of the same molecule?
Answer: Its value is 3.7 (1.2) ng/ml.

Question: And the “Testosterone level of the blood plasma” value ([3]; dose 3.0 μg/kg, after 0 minutes)?
Answer: The value was 1.9 (0.3) ng/ml.

Question: And the “Testosterone level of the blood plasma” value ([3]; dose 3.0 μg/kg, after 30 minutes)?
Answer: Its value is 6.2 (2.4) ng/ml.

Question: And the “Testosterone level of the blood plasma” value ([3]; dose 3.0 μg/kg, after 60 minutes)?
Answer: The value was 5.2 (1.7) ng/ml.

Question: What about the “Testosterone level of the blood plasma” value ([3]; dose 3.0 μg/kg, after 120 minutes) of the same molecule?
Answer: Its value is 3.0 (1.1) ng/ml.

Question: What about the “Testosterone level of the blood plasma” value ([3]; dose 5.0 μg/kg, after 0 minutes) of the same molecule?
Answer: Its value is 2.1 (1.2) ng/ml.

Question: And the “Testosterone level of the blood plasma” value ([3]; dose 5.0 μg/kg, after 30 minutes)?
Answer: Its value is 3.6 (2.4) ng/ml.

Question: And the “Testosterone level of the blood plasma” value ([3]; dose 5.0 μg/kg, after 60 minutes)?
Answer: The value was 2.7 (0.6) ng/ml.

Question: And the “Testosterone level of the blood plasma” value ([3]; dose 5.0 μg/kg, after 120 minutes)?
Answer: The value was 1.7 (0.9) ng/ml.

Question: And the “sexual potency of the animal” value (bull; 5 weeks following the treatment)?
Answer: The value was “unobjectionable”.

Question: What about the “covering behaviour after treatment” value (bull; bull with impotentia coeundi, Dec. 6, 1985) of the same molecule?
Answer: The value was “covered two times a rutting cow”.
